Experimental findings from PubChem BioAssay (NCI) are described below.

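Cells were grown in 96-well plates and exposed to each compound for 48 hours at five concentrations; endpoints were interpolated linearly between bracketing concentrations, or set to the highest concentration if not reached. TGI: total growth inhibition.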

Some test systems named below: K-562 leukemia; RPMI-8226 leukemia; OVCAR-5 ovarian; COLO 205 colon; UACC-62 melanoma; BT-549 breast; SR leukemia; TK-10 renal; SN12C renal; NCI-H226 lung; SNB-19 CNS; A498 renal; HOP-62 NSCLC; IGROV1 ovarian; HT29 colon; MOLT-4 leukemia; SF-295 CNS; U251 CNS; CAKI-1 renal; NCI-H460 lung.
What all share (assay): inhibition of tumour cell growth, NCI panel, 48 h

In the case of `C=C(Cl)C(Br)(CBr)CCC(Br)C(C)(C)Br` (centres undefined), the TGI is more than 10 µM in the experiment on K-562 leukemia; 4.96 µM in the experiment on RPMI-8226 leukemia; more than 10 µM with OVCAR-5 ovarian; more than 10 µM in the experiment on COLO 205 colon; more than 10 µM with UACC-62 melanoma; more than 10 µM with BT-549 breast. Further, the TGI was more than 1 µM in the experiment on SR leukemia; more than 10 µM with TK-10 renal; more than 10 µM in the experiment on SN12C renal; more than 10 µM in the experiment on NCI-H226 lung; more than 10 µM in the experiment with SNB-19 CNS; more than 10 µM in the experiment with A498 renal. Moreover, the TGI in the experiment with HOP-62 NSCLC is more than 10 µM; in the experiment with IGROV1 ovarian, 3.68 µM; in the experiment with HT29 colon, more than 10 µM; in the experiment on MOLT-4 leukemia, more than 10 µM; with SF-295 CNS, more than 10 µM; in the experiment on U251 CNS, more than 10 µM. In the experiment with CAKI-1 renal, this molecule came in with a TGI of more than 10 µM.
With `COc1cc(C2S/C(=C/c3ccccc3)C(=O)N2c2ccc([N+](=O)[O-])cc2)cc(OC)c1OC` (centres undefined), the TGI with NCI-H460 lung, in the experiment with K-562 leukemia, in the experiment with RPMI-8226 leukemia, in the experiment with OVCAR-5 ovarian, in the experiment with COLO 205 colon and in the experiment on UACC-62 melanoma was more than 100 µM throughout. In addition, the TGI in the experiment on BT-549 breast, with SR leukemia, in the experiment on TK-10 renal, in the experiment with SN12C renal, with NCI-H226 lung and in the experiment with SNB-19 CNS was more than 100 µM in each case. Besides, the TGI is more than 100 µM in the experiment with A498 renal; more than 100 µM in the experiment on HOP-62 NSCLC; more than 83.5 µM in the experiment with IGROV1 ovarian; more than 100 µM in the experiment with HT29 colon; more than 100 µM in the experiment on MOLT-4 leukemia; more than 100 µM with SF-295 CNS. Besides, the TGI with U251 CNS and with CAKI-1 renal was more than 100 µM throughout.
For the molecule `COC(=O)c1c(C(=O)OC)c(C(c2ccccc2)c2ccccc2)n(-c2ccccc2)c1Cl`, the TGI with NCI-H460 lung, in the experiment with K-562 leukemia, in the experiment with RPMI-8226 leukemia, with OVCAR-5 ovarian, in the experiment on COLO 205 colon and in the experiment with UACC-62 melanoma was more than 10 µM each time. Besides, the TGI with BT-549 breast, in the experiment with SR leukemia, with TK-10 renal, with SN12C renal, with NCI-H226 lung and in the experiment on SNB-19 CNS was more than 10 µM in each case. In addition, the TGI with A498 renal is more than 10 µM; in the experiment on HOP-62 NSCLC it was more than 10 µM; in the experiment with IGROV1 ovarian, more than 10 µM; with HT29 colon, more than 10 µM; with MOLT-4 leukemia, 8.1 µM; in the experiment on SF-295 CNS, more than 10 µM. Also, the TGI with U251 CNS and in the experiment with CAKI-1 renal was more than 10 µM in each case.
As to `O=c1c2c3c(sc2nc2n1N=CN(c1ccc(Cl)cc1)C2)CCCC3`, the TGI in the experiment with NCI-H460 lung, in the experiment on K-562 leukemia, in the experiment on RPMI-8226 leukemia, with OVCAR-5 ovarian, with COLO 205 colon and in the experiment on UACC-62 melanoma was more than 100 µM throughout. Further, the TGI with BT-549 breast was more than 100 µM; with SR leukemia it was 51.1 µM; with TK-10 renal, more than 100 µM; in the experiment on SN12C renal it was more than 100 µM; in the experiment with NCI-H226 lung it was more than 100 µM; in the experiment on SNB-19 CNS it was more than 100 µM. Further, the TGI in the experiment with A498 renal, in the experiment with HOP-62 NSCLC, in the experiment with IGROV1 ovarian, in the experiment on HT29 colon, in the experiment with MOLT-4 leukemia and in the experiment with SF-295 CNS was more than 100 µM throughout. Besides, the TGI in the experiment on U251 CNS and with CAKI-1 renal was more than 100 µM each time.
On to `C#C[C@]1(O)CC[C@H]2[C@@H]3CCC4=C/C(=N\OCCN5CCCC5)CC[C@]4(C)[C@H]3CC[C@@]21C`, for which the TGI in the experiment on NCI-H460 lung is 40.6 µM; with K-562 leukemia it was more than 39.2 µM; with RPMI-8226 leukemia it was 13.2 µM; in the experiment on OVCAR-5 ovarian, 50.3 µM; in the experiment on COLO 205 colon it was 43.1 µM; in the experiment on UACC-62 melanoma, 27.5 µM. Also, the TGI with BT-549 breast is 43.6 µM; with SR leukemia, 13.3 µM; in the experiment on TK-10 renal, 38.3 µM; in the experiment with SN12C renal, 43.7 µM; with NCI-H226 lung it was 55.5 µM; in the experiment with SNB-19 CNS, 32.2 µM. In addition, the TGI was determined as 50.4 µM in the experiment with A498 renal; 26.7 µM in the experiment on HOP-62 NSCLC; 23.2 µM with IGROV1 ovarian; 29.7 µM with HT29 colon; 17.9 µM with MOLT-4 leukemia; 14.5 µM in the experiment with SF-295 CNS. Further, the TGI in the experiment with U251 CNS was more than 49.4 µM; in the experiment with CAKI-1 renal, 39.1 µM.
As for `CCCCCNC1=CC(=O)c2ccccc2C1=O`, the TGI with NCI-H460 lung, with K-562 leukemia, with RPMI-8226 leukemia, in the experiment with OVCAR-5 ovarian, with COLO 205 colon and in the experiment on UACC-62 melanoma was more than 100 µM each time. In addition, the TGI in the experiment on BT-549 breast is 46 µM; in the experiment with SR leukemia, more than 100 µM; with TK-10 renal, 52.3 µM; with SN12C renal, more than 100 µM; in the experiment with NCI-H226 lung, more than 82.5 µM; with SNB-19 CNS it was 82.5 µM. Moreover, the TGI was more than 76.7 µM in the experiment on A498 renal; 43.5 µM in the experiment with HOP-62 NSCLC; more than 100 µM with IGROV1 ovarian; more than 100 µM in the experiment with HT29 colon; more than 100 µM in the experiment with MOLT-4 leukemia; more than 70.3 µM in the experiment with SF-295 CNS. The TGI in the experiment on U251 CNS was 34 µM; in the experiment on CAKI-1 renal, 80.6 µM.
As for `COc1ccc(CCN(C)C(=O)CC(C#N)(c2ccccc2)c2ccc(OC)c(OC)c2)cc1OC` (centres undefined), the TGI with NCI-H460 lung, with K-562 leukemia, in the experiment on RPMI-8226 leukemia, in the experiment on OVCAR-5 ovarian, in the experiment on COLO 205 colon and in the experiment on UACC-62 melanoma was more than 100 µM each time. Moreover, the TGI with BT-549 breast was more than 100 µM; in the experiment with SR leukemia, 99.3 µM; with TK-10 renal, more than 100 µM; in the experiment with SN12C renal it was more than 100 µM; in the experiment on NCI-H226 lung, more than 100 µM; with SNB-19 CNS, more than 100 µM. The TGI in the experiment with A498 renal, in the experiment with HOP-62 NSCLC, with IGROV1 ovarian, in the experiment with HT29 colon, with MOLT-4 leukemia and in the experiment on SF-295 CNS was more than 100 µM in each case. Moreover, the TGI in the experiment on U251 CNS and in the experiment on CAKI-1 renal was more than 100 µM in each case.
